How the values were obtained:
[1] = system: content of magnesium in serum; experiment: Serum magnesium in rats given puromycin aminonucleoside (Example 15); type: in vivo, male Wistar rats; conditions: AN 1.5 mg/100 g
Method: Forty male Wistar rats in 9th week after birth were divided into four groups, and the rats of each group were treated as follows.
To the rats of the first group were administered subcutaneously physiological saline solution once a day for continuous 12 days at a daily dose of 0.1 ml/100 g body weight with the simultaneous oral administration of triglyceride ester of fatty acid used in Example 1 (abbreviated as MCT) containing 0.1% by weight of ethanol once a day for continuous 12 days at a daily dose of 0.2 ml/100 g body weight followed by oral administration of only MCT once a day for another 3 continuous days at the same daily dose rate.
To the rats of the second group were subcutaneously administered a solution of 1.5 mg of puromycin aminonucleoside (abbreviated hereinafter as AN) in 0.1 ml of physiological saline solution once a day for continuous 12 days at a daily dose rate of 1.5 mg of AN/100 g body weight. The saline solution had been sterilized with a Milipore filter before administration. To the rats were further administered orally MCT in the same manner as in those of the first group. […]
On 15th day after the commencement of the above-mentioned administration, blood specimen was collected from all the rats, and after preparing each specimen of serum from each blood specimen, the content of magnesium in each serum specimen was determined by atomic absorption method. […]

[2] = system: LICR-LON-HMy 2 cells derived from human myeloma; experiment: Inhibition of proliferation of LICR-LON-HMy 2 cells (Example 25); type: cell-based; conditions: 3 days
Method: In a similar manner to Example 24, in vitro proliferated strain of LICR-LON-HMy 2 cells derived from human myeloma were cultured in each one of the same culture mediums as those used in Example 24. After culturing for 3 days, the cultured medium was stained with tripan blue and observed under a microscope to count the number of living cells, the results being shown in Table 19.
In Table 19, the inhibition rate is based on the number of cells in the culture medium added specifically with dimethylsulfoxide as in Example 24.

[3] = system: lymphocytes from a healthy person; experiment: Effect of plasma of treated renal failure/uremia patients on blastoid-transformation of lymphocytes from a healthy person (Example 14); type: cell-based, human; conditions: 0.5 to 1.0 µg/day oral, 1 to 6 months
Description: Effects of plasma derived from a patient suffering from chronic renal failure or uremia treated with the present compound or not treated therewith on blastoid-transformation of lymphocytes from a healthy person Heparinized fresh peripheral blood of a normal person was mixed with Ficoll-Paque solution, and after subjecting the mixture to ultracentrifugal separation, the layer of lymphocyte was collected, and after washing the layer three times with phosphate buffer solution, the washed lymphocytes were dispersed in suspension in RPMI-1640 culture medium (liquid) at a concentration of 6×10^5 cells/ml. […] Then, the specimen was harvested to determine the uptake of ^3 H-TdR by the lymphocytes. In addition, the plasma of each patient was collected two times, namely, once before hemodialysis and once after hemodialysis, and accordingly the total patient system of the present test consists of two large groups one of which is administered and the other of which is not administered with the compound, and each large group consists of two groups one of which is not yet hemodialysed and the other of which has been already hemodialysed.

[4] = system: inorganic phosphate in serum; experiment: Serum inorganic phosphate in chronic renal failure patients under hemodialysis (Example 21); type: in vivo, human
Method: Eight patients suffering from chronic renal failure under the treatment of hemodialysis two times a week while using a dialysate containing 9 to 10 mg/dl of calcium component were further treated by oral administration of 24R,25-(OH)2 -D3 in a form of the soft capsule composition obtained in Example 6 at a daily dose of 2 to 10 micrograms for 6 weeks, and the concentration of inorganic phosphate in the serum of each patient before the commencement of the administration and that after completion of the administration were determined by Molybdenum Blue method.

[5] = system: mononucleates (lymphocytes) of peripheral blood; experiment: Blastoid-transformation of rat lymphocytes in peripheral blood, 3H-TdR uptake (Example 13); type: in vivo
Method: The effect of the present compound on the blastoid-transformation of rat lymphocytes in the peripheral blood was examined as follows: After mixing each of the blood specimens taken from the respective rats of the four groups in Example 11 added with heparin and RPMI-1640 culture medium at a weight ratio of 1:1, the mixture was added to Ficoll-Paque solution, and the thus obtained mixture was subjected to centrifugal separation at 400 G for 20 min to collect the layer of mononucleates. After washing the thus collected mononucleates three times with PRMI-1640 culture medium (in a liquid state), the washed mononucleates were suspended into RPMI-1640 culture medium added with 10% by weight of calf serum to be in concentration of 1.5×10^6 cells/ml. Hundred microliters of the thus prepared suspension was placed in the pit of Pharcon microtest II plate, and after adding a substance promoting cell division (hereinafter referred to as mitogen) and RPMI-1640 culture medium added with 10% by weight of calf serum to the thus placed suspension to make the total volume 200 microliters, the thus prepared mixture was incubated for 72 hours under a gas (a 95:5 by volume mixture of air and carbon dioxide saturated with moisture) flow at 37° C. ^3 H-methylthymidine of specific activity of 5 Ci/mmol was added to the mixture during incubation at the time 24 hours before the incubation was over in an amount corresponding to 0.5 micro Ci. After the incubation was over, the cells in the culture were collected by filtering the cultured mixture, and the amount of radioactive isotope uptaken into the cells was determined by a liquid scintillation counter. For reference, the mitogen used in the present test is concanavalin A for T-cell or lipopolysaccharide for B-cell.

[6] = 100 µg/kg/day oral 12 days with puromycin aminonucleoside

`C=C1CC[C@H](O)C/C1=C/C=C1\CCC[C@]2(C)[C@@H]([C@H](C)CC[C@@H](O)C(C)(C)O)CC[C@@H]12` [24R,25-(OH)2 -D3] was tested, and the Mg in serum ([1]; 3rd group, dose 1 per 100 g b.w. oral 12 days) was 4.5 ± 0.32 mg/dL, the Mg in serum ([1]; 4th group, dose 10 per 100 g b.w. oral 12 days) was 4.3 ± 0.30 mg/dL and the “Number of myeloma cells after culture” value ([2]; 1 microgram/ml) was 8.0 ×10^5 cells/ml. For the same compound, the “Number of myeloma cells after culture” value ([2]; 10 micrograms/ml) was 0.4 ×10^5 cells/ml, the inhibition at 1 µg/mL ([2]; Homo sapiens, 72 h, 1 microgram/ml, vs dimethylsulfoxide, read-out: Inhibition Rate of the myeloma cells) was 12% and the inhibition at 10 µg/mL ([2]; Homo sapiens, 72 h, 10 micrograms/ml, vs dimethylsulfoxide, read-out: Inhibition Rate of the myeloma cells) was 96%. The “Uptake of 3H-TdR in the presence of lectin from kidney beans” value ([3]; after hemodialysis) was 222480 ± 21253 cpm, the “Uptake of 3H-TdR in the presence of lipopolysaccharide” value ([3]; after hemodialysis) was 129984 ± 51385 cpm and the “Uptake of 3H-TdR in the presence of lectin from kidney beans” value ([3]; before hemodialysis) was 228906 ± 19081 cpm. For the same compound, the “Uptake of 3H-TdR in the presence of lipopolysaccharide” value ([3]; before hemodialysis) was 158950 ± 48245 cpm, the “metastatic calcification (roentgenographic examination)” value ([4]; all patients, after completion of the administration) was “metastatic calcification was not recognized” and the “Concentration of inorganic phosphorus after administration, average” value ([4]; average of 8 patients, 2 to 10 µg/day, 6 weeks) was 4.36 ± 0.76 mg/dL. For the same compound, the “Concentration of inorganic phosphorus before administration, average” value ([4]; average of 8 patients, baseline) was 6.63 ± 0.77 mg/dL, the “osteomalacia (bone biopsy)” value ([4]; one patient, after completion of the administration) was “improvement of osteomalacia was confirmed” and the “Concentration of inorganic phosphorus after administration” value ([4]; patient 1 (person fifteen), 8 µg/day, 6 weeks) was 4.9 mg/dL. For the same compound, the “Concentration of inorganic phosphorus before administration” value ([4]; patient 1 (person fifteen), baseline) was 7.2 mg/dL, the “Concentration of inorganic phosphorus after administration” value ([4]; patient 2 (person one), 6 µg/day, 6 weeks) was 4.7 mg/dL and the “Concentration of inorganic phosphorus before administration” value ([4]; patient 2 (person one), baseline) was 6.7 mg/dL. For the same compound, the “Concentration of inorganic phosphorus after administration” value ([4]; patient 3 (person five), 10 µg/day, 6 weeks) was 5.2 mg/dL, the “Concentration of inorganic phosphorus before administration” value ([4]; patient 3 (person five), baseline) was 8.0 mg/dL and the “Concentration of inorganic phosphorus after administration” value ([4]; patient 4 (person nine), 4 µg/day, 6 weeks) was 4.2 mg/dL. The “Concentration of inorganic phosphorus before administration” value ([4]; patient 4 (person nine), baseline) was 5.8 mg/dL, the “Concentration of inorganic phosphorus after administration” value ([4]; patient 5 (person eleven), 8 µg/day, 6 weeks) was 5.3 mg/dL and the “Concentration of inorganic phosphorus before administration” value ([4]; patient 5 (person eleven), baseline) was 7.1 mg/dL. The “Concentration of inorganic phosphorus after administration” value ([4]; patient 6 (person eighteen), 6 µg/day, 6 weeks) was 3.5 mg/dL, the “Concentration of inorganic phosphorus before administration” value ([4]; patient 6 (person eighteen), baseline) was 6.3 mg/dL and the “Concentration of inorganic phosphorus after administration” value ([4]; patient 7 (person eight), 2 µg/day, 6 weeks) was 3.5 mg/dL. For the same compound, the “Concentration of inorganic phosphorus before administration” value ([4]; patient 7 (person eight), baseline) was 5.8 mg/dL, the “Concentration of inorganic phosphorus after administration” value ([4]; patient 8 (person thirteen), 6 µg/day, 6 weeks) was 3.6 mg/dL and the “Concentration of inorganic phosphorus before administration” value ([4]; patient 8 (person thirteen), baseline) was 6.1 mg/dL. The “inorganic phosphate level in serum” value ([4]; patient of chronic renal failure given hemodialysis) was “significant reduction of the inorganic phosphate level in their serum to the normal level”, the “Uptake of 3H-TdR in presence of Concanavalin A” value [5, 6] was 3995 ± 412 cpm and the “Uptake of 3H-TdR in presence of Lipopolysaccharide” value [5, 6] was 3568 ± 372 cpm. The “Number of mononucleate (ratio, first group = 1.00)” value ([5]; po, 0.1 mg/kg, 288 h) was 0.68 ± 0.17.

— US4442093A, “Method for administering 24,25-dihydroxycholecalciferol to persons suffering from hypercalcemia” (Kureha Kagaku Kogyo Kabushiki Kaisha, priority 1981, dated 1984)
